According to ChEMBL document CHEMBL1909046, “DrugMatrix in vitro pharmacology data”:

system: not listed separately; assay: DRUGMATRIX: Calcium Channel Type L, Benzothiazepine radioligand binding (ligand: [3H] Diltiazem); type: cell membranes, Rattus norvegicus, Wistar, Brain, Membrane; conditions: Not Active = under 50% inhibition at 10 µM

SMILES	IC50	Ki
O=C(O)CC(O)(CC(=O)O)C(=O)O [CITRIC ACID]	Not Active	Not Active
CC(C)NCC(O)c1ccccc1Cl (stereo not drawn) [CLORPRENALINE]	Not Active	Not Active
CN1C[C@@H]2C[C@H]1CN2c1cc2c(cc1F)c(=O)c(C(=O)O)cn2C1CC1 [DANOFLOXACIN]	Not Active	Not Active
COc1cccc2c1C(=O)c1c(O)c3c(c(O)c1C2=O)C[C@@](O)(C(C)=O)C[C@@H]3O[C@H]1C[C@H](N)[C@H](O)[C@H](C)O1 [DAUNORUBICIN]	Not Active	Not Active
O=C(O)c1cc(-c2ccc(F)cc2F)ccc1O [DIFLUNISAL]	Not Active	Not Active
C[S+](C)[O-] [DIMETHYL SULFOXIDE]	Not Active	Not Active
CC1=NN(c2ccccc2)C(=O)C1 [EDARAVONE]	Not Active	Not Active

same assay, conditions: Not Active = under 50% inhibition at 10 µM; read-out: IC50

SMILES	IC50
CN1CCN(C(c2ccccc2)c2ccccc2)CC1 [CYCLIZINE]	2520 nM

same assay, conditions: Not Active = under 50% inhibition at 10 µM; read-out: Ki

SMILES	Ki
CN1CCN(C(c2ccccc2)c2ccccc2)CC1 [CYCLIZINE]	2240 nM

target: D(3) dopamine receptor (Homo sapiens, UniProt P35462); assay: DRUGMATRIX: Dopamine D3 radioligand binding (ligand: [3H] Spiperone); type: cell membranes, CHO, Membrane; conditions: cho
Sequence (P35462 whole entry): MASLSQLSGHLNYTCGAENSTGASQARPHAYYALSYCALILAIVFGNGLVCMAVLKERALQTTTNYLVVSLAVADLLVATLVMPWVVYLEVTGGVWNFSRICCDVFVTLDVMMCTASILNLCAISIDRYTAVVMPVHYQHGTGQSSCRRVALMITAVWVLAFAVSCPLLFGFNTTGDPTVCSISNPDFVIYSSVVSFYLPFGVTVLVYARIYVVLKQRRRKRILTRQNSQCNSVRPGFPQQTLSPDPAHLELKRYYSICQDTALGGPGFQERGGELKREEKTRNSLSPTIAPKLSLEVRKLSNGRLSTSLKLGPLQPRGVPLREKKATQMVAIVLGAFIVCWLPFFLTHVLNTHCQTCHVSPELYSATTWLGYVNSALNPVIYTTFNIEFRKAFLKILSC

SMILES	IC50
O=C(O)CC(O)(CC(=O)O)C(=O)O [CITRIC ACID]	Not Active
CC(C)NCC(O)c1ccccc1Cl (stereo not drawn) [CLORPRENALINE]	Not Active
CN1C[C@@H]2C[C@H]1CN2c1cc2c(cc1F)c(=O)c(C(=O)O)cn2C1CC1 [DANOFLOXACIN]	Not Active
COc1cccc2c1C(=O)c1c(O)c3c(c(O)c1C2=O)C[C@@](O)(C(C)=O)C[C@@H]3O[C@H]1C[C@H](N)[C@H](O)[C@H](C)O1 [DAUNORUBICIN]	Not Active
O=C(O)c1cc(-c2ccc(F)cc2F)ccc1O [DIFLUNISAL]	Not Active
C[S+](C)[O-] [DIMETHYL SULFOXIDE]	Not Active
CC1=NN(c2ccccc2)C(=O)C1 [EDARAVONE]	Not Active

same assay, conditions: read-out: IC50

SMILES	IC50
CN1CCN(C(c2ccccc2)c2ccccc2)CC1 [CYCLIZINE]	2990 nM

same assay, conditions: read-out: Ki

SMILES	Ki
CN1CCN(C(c2ccccc2)c2ccccc2)CC1 [CYCLIZINE]	1020 nM

target: Kappa-type opioid receptor (Homo sapiens, UniProt P41145); assay: DRUGMATRIX: Opiate kappa (OP2, KOP) radioligand binding (ligand: [3H] Diprenorphine); type: cell membranes, HEK293, Membrane; conditions: hek293; Not Active = under 50% inhibition at 10 µM
Sequence (P41145 whole entry): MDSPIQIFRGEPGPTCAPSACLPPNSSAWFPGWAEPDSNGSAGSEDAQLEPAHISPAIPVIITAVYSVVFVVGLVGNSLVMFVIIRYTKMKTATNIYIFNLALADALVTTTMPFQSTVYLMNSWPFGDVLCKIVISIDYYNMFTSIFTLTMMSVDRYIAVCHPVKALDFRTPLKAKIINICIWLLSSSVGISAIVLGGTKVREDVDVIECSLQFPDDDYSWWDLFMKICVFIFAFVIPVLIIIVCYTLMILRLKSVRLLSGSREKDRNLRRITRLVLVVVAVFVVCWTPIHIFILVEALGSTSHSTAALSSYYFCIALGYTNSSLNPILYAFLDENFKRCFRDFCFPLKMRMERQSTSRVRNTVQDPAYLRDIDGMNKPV

SMILES	IC50
O=C(O)CC(O)(CC(=O)O)C(=O)O [CITRIC ACID]	Not Active
CC(C)NCC(O)c1ccccc1Cl (stereo not drawn) [CLORPRENALINE]	Not Active
CN1CCN(C(c2ccccc2)c2ccccc2)CC1 [CYCLIZINE]	Not Active
CN1C[C@@H]2C[C@H]1CN2c1cc2c(cc1F)c(=O)c(C(=O)O)cn2C1CC1 [DANOFLOXACIN]	Not Active
COc1cccc2c1C(=O)c1c(O)c3c(c(O)c1C2=O)C[C@@](O)(C(C)=O)C[C@@H]3O[C@H]1C[C@H](N)[C@H](O)[C@H](C)O1 [DAUNORUBICIN]	Not Active
O=C(O)c1cc(-c2ccc(F)cc2F)ccc1O [DIFLUNISAL]	Not Active
C[S+](C)[O-] [DIMETHYL SULFOXIDE]	Not Active
CC1=NN(c2ccccc2)C(=O)C1 [EDARAVONE]	Not Active

target: T1, 5-hydroxytryptamine receptor 2C (Homo sapiens, UniProt P28335); assay: DRUGMATRIX: Serotonin (5-Hydroxytryptamine) 5-HT2C radioligand binding (ligand: [3H] Mesulergine); type: cell membranes, CHO-K1, Membrane; conditions: Not Active = under 50% inhibition at 10 µM; read-out: IC50
T1 sequence (P28335 whole entry): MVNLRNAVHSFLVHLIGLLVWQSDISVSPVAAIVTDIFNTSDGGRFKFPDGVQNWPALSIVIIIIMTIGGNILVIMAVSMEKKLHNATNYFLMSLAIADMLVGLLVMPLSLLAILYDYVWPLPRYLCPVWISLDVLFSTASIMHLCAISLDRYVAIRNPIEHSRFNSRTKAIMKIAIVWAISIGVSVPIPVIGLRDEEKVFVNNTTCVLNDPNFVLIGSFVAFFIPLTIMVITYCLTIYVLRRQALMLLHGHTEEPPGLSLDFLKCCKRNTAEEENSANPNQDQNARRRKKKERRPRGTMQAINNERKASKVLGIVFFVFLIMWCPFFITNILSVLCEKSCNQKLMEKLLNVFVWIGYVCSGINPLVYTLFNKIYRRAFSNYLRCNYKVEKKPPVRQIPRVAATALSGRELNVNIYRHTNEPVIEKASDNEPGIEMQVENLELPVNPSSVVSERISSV

SMILES	IC50
CN1CCN(C(c2ccccc2)c2ccccc2)CC1 [CYCLIZINE]	1020 nM

same assay, conditions: Not Active = under 50% inhibition at 10 µM; read-out: Ki

SMILES	Ki
CN1CCN(C(c2ccccc2)c2ccccc2)CC1 [CYCLIZINE]	535 nM

same assay, conditions: cho-k1; Not Active = under 50% inhibition at 10 µM

SMILES	IC50
O=C(O)CC(O)(CC(=O)O)C(=O)O [CITRIC ACID]	Not Active
CC(C)NCC(O)c1ccccc1Cl (stereo not drawn) [CLORPRENALINE]	Not Active
CN1C[C@@H]2C[C@H]1CN2c1cc2c(cc1F)c(=O)c(C(=O)O)cn2C1CC1 [DANOFLOXACIN]	Not Active
COc1cccc2c1C(=O)c1c(O)c3c(c(O)c1C2=O)C[C@@](O)(C(C)=O)C[C@@H]3O[C@H]1C[C@H](N)[C@H](O)[C@H](C)O1 [DAUNORUBICIN]	Not Active
O=C(O)c1cc(-c2ccc(F)cc2F)ccc1O [DIFLUNISAL]	Not Active
C[S+](C)[O-] [DIMETHYL SULFOXIDE]	Not Active
CC1=NN(c2ccccc2)C(=O)C1 [EDARAVONE]	Not Active

target: Vascular endothelial growth factor receptor 1 (Homo sapiens, UniProt P17948); type: cell-based; conditions: huvec; also: in other assays of this panel Not Active means under 50% inhibition at 10 µM
Sequence (P17948 whole entry): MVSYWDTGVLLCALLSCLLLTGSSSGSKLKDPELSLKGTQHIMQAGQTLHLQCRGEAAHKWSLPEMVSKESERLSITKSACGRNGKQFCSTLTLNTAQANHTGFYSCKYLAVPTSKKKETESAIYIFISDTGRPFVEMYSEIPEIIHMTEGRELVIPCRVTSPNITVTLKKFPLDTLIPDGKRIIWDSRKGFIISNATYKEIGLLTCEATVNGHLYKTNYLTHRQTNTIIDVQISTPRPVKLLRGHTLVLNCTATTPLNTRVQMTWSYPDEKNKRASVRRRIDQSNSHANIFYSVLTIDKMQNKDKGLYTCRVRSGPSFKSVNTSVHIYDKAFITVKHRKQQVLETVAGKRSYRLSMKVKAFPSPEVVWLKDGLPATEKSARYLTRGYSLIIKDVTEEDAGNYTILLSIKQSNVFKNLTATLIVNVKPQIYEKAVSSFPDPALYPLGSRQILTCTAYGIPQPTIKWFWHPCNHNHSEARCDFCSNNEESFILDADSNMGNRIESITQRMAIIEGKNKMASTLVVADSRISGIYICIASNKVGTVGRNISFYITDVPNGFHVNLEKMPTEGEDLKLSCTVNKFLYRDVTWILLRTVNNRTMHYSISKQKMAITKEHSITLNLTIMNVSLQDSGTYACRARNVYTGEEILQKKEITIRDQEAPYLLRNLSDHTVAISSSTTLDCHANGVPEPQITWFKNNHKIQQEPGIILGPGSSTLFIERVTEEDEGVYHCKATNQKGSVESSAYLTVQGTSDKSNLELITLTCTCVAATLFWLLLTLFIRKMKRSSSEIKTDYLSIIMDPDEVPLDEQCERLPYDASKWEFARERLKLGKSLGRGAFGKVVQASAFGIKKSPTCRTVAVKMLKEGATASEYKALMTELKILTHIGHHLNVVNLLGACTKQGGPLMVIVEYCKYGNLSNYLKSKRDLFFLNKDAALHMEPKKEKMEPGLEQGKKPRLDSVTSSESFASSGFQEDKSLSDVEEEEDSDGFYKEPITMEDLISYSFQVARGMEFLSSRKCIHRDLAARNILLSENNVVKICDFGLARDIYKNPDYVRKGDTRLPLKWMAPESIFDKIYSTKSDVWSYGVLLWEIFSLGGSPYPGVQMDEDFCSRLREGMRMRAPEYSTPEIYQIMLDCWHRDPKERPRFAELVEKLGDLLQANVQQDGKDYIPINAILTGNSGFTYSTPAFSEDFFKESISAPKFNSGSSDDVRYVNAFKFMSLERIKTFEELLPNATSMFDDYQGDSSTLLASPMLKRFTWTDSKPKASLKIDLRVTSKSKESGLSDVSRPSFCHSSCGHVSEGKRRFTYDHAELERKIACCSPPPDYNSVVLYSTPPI

SMILES	IC50
O=C(O)CC(O)(CC(=O)O)C(=O)O [CITRIC ACID]	Not Active
CC(C)NCC(O)c1ccccc1Cl (stereo not drawn) [CLORPRENALINE]	Not Active
CN1CCN(C(c2ccccc2)c2ccccc2)CC1 [CYCLIZINE]	Not Active
CN1C[C@@H]2C[C@H]1CN2c1cc2c(cc1F)c(=O)c(C(=O)O)cn2C1CC1 [DANOFLOXACIN]	Not Active
COc1cccc2c1C(=O)c1c(O)c3c(c(O)c1C2=O)C[C@@](O)(C(C)=O)C[C@@H]3O[C@H]1C[C@H](N)[C@H](O)[C@H](C)O1 [DAUNORUBICIN]	Not Active
O=C(O)c1cc(-c2ccc(F)cc2F)ccc1O [DIFLUNISAL]	Not Active
C[S+](C)[O-] [DIMETHYL SULFOXIDE]	Not Active
CC1=NN(c2ccccc2)C(=O)C1 [EDARAVONE]	Not Active

target: Platelet-activating factor receptor (Homo sapiens, UniProt P25105); type: tissue-based; conditions: not given; also: in other assays of this panel Not Active means under 50% inhibition at 10 µM
Sequence (P25105 whole entry): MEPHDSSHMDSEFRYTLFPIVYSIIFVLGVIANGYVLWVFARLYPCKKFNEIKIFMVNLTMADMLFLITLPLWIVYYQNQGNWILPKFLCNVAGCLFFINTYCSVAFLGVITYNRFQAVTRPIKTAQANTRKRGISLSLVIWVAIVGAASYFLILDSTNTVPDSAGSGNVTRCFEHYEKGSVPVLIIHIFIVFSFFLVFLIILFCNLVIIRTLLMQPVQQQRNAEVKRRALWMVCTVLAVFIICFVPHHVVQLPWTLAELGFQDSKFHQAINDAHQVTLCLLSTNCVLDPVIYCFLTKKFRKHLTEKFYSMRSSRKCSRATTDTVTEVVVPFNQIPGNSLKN

SMILES	IC50
O=C(O)CC(O)(CC(=O)O)C(=O)O [CITRIC ACID]	Not Active
CC(C)NCC(O)c1ccccc1Cl (stereo not drawn) [CLORPRENALINE]	Not Active
CN1CCN(C(c2ccccc2)c2ccccc2)CC1 [CYCLIZINE]	Not Active
CN1C[C@@H]2C[C@H]1CN2c1cc2c(cc1F)c(=O)c(C(=O)O)cn2C1CC1 [DANOFLOXACIN]	Not Active
COc1cccc2c1C(=O)c1c(O)c3c(c(O)c1C2=O)C[C@@](O)(C(C)=O)C[C@@H]3O[C@H]1C[C@H](N)[C@H](O)[C@H](C)O1 [DAUNORUBICIN]	Not Active
O=C(O)c1cc(-c2ccc(F)cc2F)ccc1O [DIFLUNISAL]	Not Active
C[S+](C)[O-] [DIMETHYL SULFOXIDE]	Not Active
CC1=NN(c2ccccc2)C(=O)C1 [EDARAVONE]	Not Active
